The values that follow come from patent US20180318311A1, “TRICYCLIC 2-QUINOLINONES AS ANTIBACTERIALS” (priority 2017, published 2018).

Values after ≈ are worked out from the molar mass of the structure shown. Structures can show the parent of a compound that is named as a salt.

Common to all, as to format: cell-based
In assay [1] the test system is S. aureus ATCC 49951 (NB01006). Put plainly: MIC by broth microdilution, S. aureus NB01006. Conditions: 35° C., 20 hours; for MIC: Staphylococcus aureus, ATCC49951, CAMHB, read-out: Antibacterial activity (MIC) NB01006. An outline of the steps: (§1)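 CLSI broth microdilution in cation-adjusted Mueller-Hinton broth, inoculum about 5×10^5 CFU/mL from overnight MHA cultures. Two-fold compound dilutions in 1% final DMSO; plates incubated 20 h at 35° C in ambient air. MIC (μg/mL) was the lowest concentration preventing visible growth, checked by OD600 and visual inspection.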
A general note: Broth dilution looks for growth in wells or tubes with falling amounts of substance.

Assay [2] has as its system S. aureus NB01006-AVR005, gyrA (S84L), grlA (580F) and grlB (E471K). Put plainly: microbe, parasite or virus in culture. Conditions: for MIC: Staphylococcus aureus, 20 h, read-out: Antibacterial activity (MIC) NB01006-AVR005. The method in brief:
as §1

The test system of assay [3] is S. aureus NB01080 fluoroquinolone-resistant clinical isolate. Put plainly: MIC by broth microdilution, S. aureus NB01080. Conditions: CAMHB, 35° C., 20 hours; for MIC: Staphylococcus aureus, read-out: Antibacterial activity (MIC) NB01080. The method in brief: as §1
The test system of assay [4] is E. faecalis ATCC 29212 (NB04001). Put plainly: MIC by broth microdilution, E. faecalis NB04001. Conditions: 35° C., 20 hours; for MIC: Enterococcus faecalis, ATCC29212, CAMHB, read-out: Antibacterial activity (MIC) NB04001. An outline of the steps: as §1
In assay [5] the test system is S. pneumoniae ATCC 25922 (NB07001). The experiment in a line: MIC by broth microdilution, S. pneumoniae NB07001. Conditions: for MIC: Streptococcus pneumoniae, ATCC25922, 20 h, read-out: Antibacterial activity (MIC) NB07001. The method in brief: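 MIC in μg/mL taken as the lowest concentration with no visible growth, checked by 600 nm reading after 20 h at 35°C, ambient air. Strains tested per CLSI microdilution in cation-adjusted Mueller-Hinton broth at about 5×10^5 CFU/mL, compounds as two-fold series, 1% DMSO final.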

For assay [6], the system named is E. coli ATCC 25922 (NB27001). Put plainly: MIC by broth microdilution, E. coli NB27001. Conditions: 35° C., 20 hours; for MIC: Escherichia coli, ATCC25922, CAMHB, read-out: Antibacterial activity (MIC) NB27001. An outline of the steps:
as §1

Assay [7] relates to P. aeruginosa NB52019, wild-type PAO1 strain. The experiment in a line: MIC by broth microdilution, P. aeruginosa NB52019. Conditions: CAMHB, 35° C., 20 hours; for MIC: Pseudomonas aeruginosa, read-out: Antibacterial activity (MIC) NB52019. The method in brief:
as §1

Take `C[C@H]1COc2c(N3CC[C@@H](C4(N)CC4)C3)c(C#N)cc3cc(C(=O)O)c(=O)n1c23` [Example 17, (S)-10-((R)-3-(1-aminocyclopropyl)pyrrolidin-1-yl)-9-cyano-3-methyl-5-oxo-2,3-dihydro-5H-[1,4]oxazino[2,3,4-ij]quinoline-6-carboxylic acid trifluoroacetate salt]: the MIC in assay [1] was less than 1 µg/mL; in assay [2], 1 to 32 µg/mL; in assay [3], 1 to 32 µg/mL; in assay [4], less than 1 µg/mL; in assay [5], less than 1 µg/mL; in assay [6] it was greater than 32 µg/mL. Moreover, the MIC in assay [7] was greater than 32 µg/mL.

With `C[C@H]1COc2c(N3CC[C@@H](C4(N)CC4)C3)c(Cl)cc3cc(C(=O)O)c(=O)n1c23` [Example 18, (S)-10-((R)-3-(1-aminocyclopropyl)pyrrolidin-1-yl)-9-chloro-3-methyl-5-oxo-2,3-dihydro-5H-[1,4]oxazino[2,3,4-ij]quinoline-6-carboxylic acid hydrochloride salt], the MIC in assay [1] is 1 to 32 µg/mL; in assay [2], greater than 32 µg/mL; in assay [3] it was 1 to 32 µg/mL; in assay [4], 1 to 32 µg/mL; in assay [5], less than 1 µg/mL; in assay [6], greater than 32 µg/mL. Moreover, in assay [7], the MIC was greater than 32 µg/mL.

Consider `C[C@H]1COc2c(N3CC[C@@H](C4(N)CC4)C3)c(F)c(Cl)c3cc(C(=O)O)c(=O)n1c23` [Example 19.1, (S)-10-((R)-3-(1-aminocyclopropyl)pyrrolidin-1-yl)-8-chloro-9-fluoro-3-methyl-5-oxo-2,3-dihydro-5H-[1,4]oxazino[2,3,4-ij]quinoline-6-carboxylic acid formate salt], for which the MIC in assay [1] is less than 1 µg/mL; in assay [2], less than 1 µg/mL; in assay [3], less than 1 µg/mL; in assay [4], less than 1 µg/mL; in assay [5] it was less than 1 µg/mL; in assay [6], 1 to 32 µg/mL. Besides, the MIC in assay [7] is greater than 32 µg/mL.

Take `C[C@H](N)[C@@H]1CCN(c2c(F)c(Cl)c3cc(C(=O)O)c(=O)n4c3c2OC[C@@H]4C)C1` [Example 19.2, (S)-10-((R)-3-((S)-1-aminoethyl)pyrrolidin-1-yl)-8-chloro-9-fluoro-3-methyl-5-oxo-2,3-dihydro-5H-[1,4]oxazino[2,3,4-ij]quinoline-6-carboxylic acid]: the MIC in assay [1], in assay [2], in assay [3], in assay [4], in assay [5] and in assay [6] was less than 1 µg/mL throughout. Also, the MIC in assay [7] was 1 to 32 µg/mL (≈ 2.44 to 78.1 µM).

For `C[C@H]1COc2c(N3CC[C@@H](C4(N)CC4)C3)cc(N)c3cc(C(=O)O)c(=O)n1c23` [Example 20, (S)-8-amino-10-((R)-3-(1-aminocyclopropyl)pyrrolidin-1-yl)-3-methyl-5-oxo-2,3-dihydro-5H-[1,4]oxazino[2,3,4-ij]quinoline-6-carboxylic acid], the MIC in assay [1] is less than 1 µg/mL; in assay [2], 1 to 32 µg/mL (≈ 2.6 to 83.2 µM); in assay [3], 1 to 32 µg/mL (≈ 2.6 to 83.2 µM); in assay [4] it was 1 to 32 µg/mL (≈ 2.6 to 83.2 µM); in assay [5] it was less than 1 µg/mL; in assay [6], 1 to 32 µg/mL (≈ 2.6 to 83.2 µM). In assay [7], the MIC is greater than 32 µg/mL.

With `C[C@H]1COc2c(N3CC[C@@H](C4(N)CC4)C3)c(F)c(C#N)c3cc(C(=O)O)c(=O)n1c23` [Example 21.1, (S)-10-((R)-3-(1-aminocyclopropyl)pyrrolidin-1-yl)-8-cyano-9-fluoro-3-methyl-5-oxo-2,3-dihydro-5H-[1,4]oxazino[2,3,4-ij]quinoline-6-carboxylic acid trifluoroacetate salt], the MIC in assay [1] is less than 1 µg/mL; in assay [2], less than 1 µg/mL; in assay [3] it was less than 1 µg/mL; in assay [4] it was less than 1 µg/mL; in assay [5], less than 1 µg/mL; in assay [6] it was 1 to 32 µg/mL. In addition, in assay [7], the MIC was greater than 32 µg/mL.

For the compound `C[C@H]1COc2c(N3CC[C@@H](C4(N)CC4)C3)cc(C#N)c3cc(C(=O)O)c(=O)n1c23` [Example 21.2, (S)-10-((R)-3-(1-aminocyclopropyl)pyrrolidin-1-yl)-8-cyano-3-methyl-5-oxo-2,3-dihydro-5H-[1,4]oxazino[2,3,4-ij]quinoline-6-carboxylic acid], the MIC in assay [1] was less than 1 µg/mL; in assay [2], 1 to 32 µg/mL (≈ 2.54 to 81.1 µM); in assay [3], 1 to 32 µg/mL (≈ 2.54 to 81.1 µM); in assay [4], 1 to 32 µg/mL (≈ 2.54 to 81.1 µM); in assay [5], less than 1 µg/mL; in assay [6], 1 to 32 µg/mL (≈ 2.54 to 81.1 µM). In addition, the MIC in assay [7] is greater than 32 µg/mL.

For the compound `Cc1c(F)c(N2CC[C@@H](C3(N)CC3)C2)c2c3c1cc(C(=O)O)c(=O)n3[C@@H](C)CO2` [Example 22, (S)-10-((R)-3-(1-aminocyclopropyl)pyrrolidin-1-yl)-9-fluoro-3,8-dimethyl-5-oxo-2,3-dihydro-5H-[1,4]oxazino[2,3,4-ij]quinoline-6-carboxylic acid], the MIC is less than 1 µg/mL in assay [1]; 1 to 32 µg/mL (≈ 2.49 to 79.7 µM) in assay [2]; less than 1 µg/mL in assay [3]; less than 1 µg/mL in assay [4]; less than 1 µg/mL in assay [5]; 1 to 32 µg/mL (≈ 2.49 to 79.7 µM) in assay [6]. The MIC in assay [7] was greater than 32 µg/mL.

For the compound `CCc1c(F)c(N2CC[C@@H](C3(N)CC3)C2)c2c3c1cc(C(=O)O)c(=O)n3[C@@H](C)CO2` [Example 23, (S)-10-((R)-3-(1-aminocyclopropyl)pyrrolidin-1-yl)-8-ethyl-9-fluoro-3-methyl-5-oxo-2,3-dihydro-5H-[1,4]oxazino[2,3,4-ij]quinoline-6-carboxylic acid], the MIC in assay [1] was 1 to 32 µg/mL (≈ 2.41 to 77 µM); in assay [2], greater than 32 µg/mL; in assay [3], 1 to 32 µg/mL (≈ 2.41 to 77 µM); in assay [4], 1 to 32 µg/mL (≈ 2.41 to 77 µM); in assay [5] it was 1 to 32 µg/mL (≈ 2.41 to 77 µM); in assay [6] it was greater than 32 µg/mL. Also, in assay [7], the MIC was greater than 32 µg/mL.

`COc1c(N2C[C@@H]3CCCN[C@@H]3C2)c(F)cc2c(=O)c(C(=O)O)cn(C3CC3)c12` [MOX, moxifloxacin, reference compound]: the MIC in assay [1] is less than 1 µg/mL; in assay [2], 1 to 32 µg/mL (≈ 2.49 to 79.7 µM); in assay [3], greater than 32 µg/mL; in assay [4], less than 1 µg/mL; in assay [5], less than 1 µg/mL; in assay [6], less than 1 µg/mL. Further, the MIC in assay [7] lay within 1 to 32 µg/mL (≈ 2.49 to 79.7 µM).

As for “(S)-9-fluoro-3-methyl-10-((R)-3-(1-((2,2,2-trifluoroacetyl)-14-azanyl)cyclopropyl)pyrrolidin-1-yl)-2,3-dihydro-5H-[1,4]oxazino[2,3,4-ij]quinolin-5-one trifluoroacetate salt [Example 6.1]”, in assay [1] (CAMHB), the “Antibacterial activity (MIC) NB01006” value was “A (1 > A)”. Moreover, in assay [2] (ciprofloxacin-selected S. aureus mutant, CAMHB, 35° C., 20 hours), the “Antibacterial activity (MIC) NB01006-AVR005” value was “A (1 > A)”. In addition, the “Antibacterial activity (MIC) NB01080” value in assay [3] is “A (1 > A)”. In addition, in assay [4] (CAMHB), the “Antibacterial activity (MIC) NB04001” value is given as “A (1 > A)”. The “Antibacterial activity (MIC) NB07001” value in assay [5] (S. pneumoniae, CAMHB supplemented with 5% lysed horse blood, 35° C., 20 hours) is on record as “A (1 > A)”. Further, the “Antibacterial activity (MIC) NB27001” value in assay [6] (CAMHB) is “B (32 > B ≥ 1)”. Also, the “Antibacterial activity (MIC) NB52019” value in assay [7] is listed as “C (C ≥ 32)”.
